Where a name gives a salt, the structure may show the parent alone.
Columns and labels:
[1] = tested on: constitutive active colorectal cancer cell (CRC) Wnt pathway; test: HCT116 TOPFlash cellular reporter assay (Super TopFlash luciferase), constitutive active Wnt pathway; type: cell-based; details: Homo sapiens, HCT-116, 36 h, HCT116 TOP reporter cells, 36 hours incubation, luciferase expression
Method: In order to discover and characterize small molecules which inhibit the constitutive active colorectal cancer cell (CRC) Wnt pathway, a cellular reporter assay was employed. […] Stable transfectants were generated by cotransfection with pcDNA3 and selection of stable transfected cells with 1 mg/ml G418.

[2] = tested on: HCT116 FOP control reporter cell line; test: HCT116 FOPFlash control reporter assay (FOP control vector, non-functional TCF elements); type: cell-based; details: Homo sapiens, HCT-116, 36 h, HCT116 FOP control reporter cells, 36 hours incubation, luciferase expression
Excerpt: In a parallel approach, HCT116 cells were cotransfected with the FOP control vector and pcDNA3. The FOP vector is identical to the TOP construct, but it contains instead of functional TCF elements a randomized, non-functional sequence. For this transfection a stable transfected cell line was generated as well.

Compound | IC50 [1] [µM] | IC50 [2] [µM]
Cc1cccc(-c2nnc(NC(=O)c3ccc(OC(F)(F)F)c(NC(=O)CN4CCN(C)CC4)c3)s2)c1 [Example 145, N-[5-(3-methylphenyl)-1,3,4-thiadiazol-2-yl]-3-{[(4-methylpiperazin-1-yl)acetyl]amino}-4-(trifluoromethoxy)benzamide] | 0.152 | ≥ 50
COc1cccc(-c2nnc(NC(=O)c3ccc(OC(F)(F)F)c(NC(=O)CN4CCN(C)CC4)c3)s2)c1 [Example 146, N-[5-(3-methoxyphenyl)-1,3,4-thiadiazol-2-yl]-3-{[(4-methylpiperazin-1-yl)acetyl]amino}-4-(trifluoromethoxy)benzamide] | 0.365 | ≥ 50
CN1CCN(CC(=O)Nc2cc(C(=O)Nc3nnc(-c4ccc(Cl)cc4)s3)ccc2OC(F)(F)F)CC1 [Example 147, N-[5-(4-chlorophenyl)-1,3,4-thiadiazol-2-yl]-3-{[(4-methylpiperazin-1-yl)acetyl]amino}-4-(trifluoromethoxy)benzamide] | 2.2 | ≥ 50
CN1CCN(CC(=O)Nc2cc(C(=O)Nc3nnc(-c4ccccc4Cl)s3)ccc2OC(F)(F)F)CC1 [Example 148, N-[5-(2-chlorophenyl)-1,3,4-thiadiazol-2-yl]-3-{[(4-methylpiperazin-1-yl)acetyl]amino}-4-(trifluoromethoxy)benzamide] | 0.205 | 36.5
CN1CCN(CC(=O)Nc2cc(C(=O)Nc3nnc(-c4ccc(F)cc4)s3)ccc2OC(F)(F)F)CC1 [Example 149, N-[5-(4-fluorophenyl)-1,3,4-thiadiazol-2-yl]-3-{[(4-methylpiperazin-1-yl)acetyl]amino}-4-(trifluoromethoxy)benzamide] | 0.704 | 47.5
CN1CCN(CC(=O)Nc2cc(C(=O)Nc3nnc(-c4ccccc4F)s3)ccc2OC(F)(F)F)CC1 [Example 150, N-[5-(2-fluorophenyl)-1,3,4-thiadiazol-2-yl]-3-{[(4-methylpiperazin-1-yl)acetyl]amino}-4-(trifluoromethoxy)benzamide] | 0.076 | ≥ 50
CN1CCN(CC(=O)Nc2cc(C(=O)Nc3nnc(-c4cccc(F)c4)s3)ccc2OC(F)(F)F)CC1 [Example 152, N-[5-(3-fluorophenyl)-1,3,4-thiadiazol-2-yl]-3-{[(4-methylpiperazin-1-yl)acetyl]amino}-4-(trifluoromethoxy)benzamide] | 0.2 | ≥ 50
O=C(CN1CCOCC1)Nc1cc(C(=O)Nc2nnc(-c3cccc(F)c3)s2)ccc1OC(F)(F)F [Example 153, N-[5-(3-fluorophenyl)-1,3,4-thiadiazol-2-yl]-3-[(morpholin-4-ylacetyl)amino]-4-(trifluoromethoxy)benzamide] | 0.132 | 30
O=C(CN1CCOCC1)Nc1cc(C(=O)Nc2nnc(-c3cccc(Cl)c3)s2)ccc1OC(F)(F)F [Example 154, N-[5-(3-chlorophenyl)-1,3,4-thiadiazol-2-yl]-3-[(morpholin-4-ylacetyl)amino]-4-(trifluoromethoxy)benzamide] | 0.42 | ≥ 50
COCCNC(=O)c1ccc(C(=O)Nc2nnc(-c3ccccc3)s2)cc1NC(=O)CN1CCN(C)CC1 [Example 155, N^1-(2-methoxyethyl)-2-{[(4-methylpiperazin-1-yl)acetyl]amino}-N^4-(5-phenyl-1,3,4-thiadiazol-2-yl)terephthalamide] | 0.592 | 32.5
COCCNC(=O)c1ccc(C(=O)Nc2nnc(-c3ccccc3)s2)cc1NC(=O)CN1CCOCC1 [Example 156, N^1-(2-methoxyethyl)-2-[(morpholin-4-ylacetyl)amino]-N^4-(5-phenyl-1,3,4-thiadiazol-2-yl)terephthalamide] | 0.542 | ≥ 50
Cc1ccc(C(=O)Nc2nnc(-c3ccccc3)s2)cc1NC(=O)C1(N2CCN(C)CC2)CC1 [Example 157, 4-methyl-3-({[1-(4-methylpiperazin-1-yl)cyclopropyl]carbonyl}amino)-N-(5-phenyl-1,3,4-thiadiazol-2-yl)benzamide hydrochloride (1:1)] | 0.0966 | ≥ 50
CN1CCN(CC(=O)Nc2cc(C(=O)Nc3ccc(-c4ccccc4)cn3)ccc2OC(F)(F)F)CC1 [Example 158, 3-{[(4-methylpiperazin-1-yl)acetyl]amino}-N-(5-phenylpyridin-2-yl)-4-(trifluoromethoxy)benzamide] | 0.0736 | 21.8
CC1CN(CC(=O)Nc2cc(C(=O)Nc3nnc(-c4ccccc4)s3)ccc2OC(F)(F)F)CCN1C (stereo not drawn) [Example 160, 3-{[(3,4-dimethylpiperazin-1-yl)acetyl]amino}-N-(5-phenyl-1,3,4-thiadiazol-2-yl)-4-(trifluoromethoxy)benzamide] | 0.948 | 28
C[C@@H]1CN(C)CCN1CC(=O)Nc1cc(C(=O)Nc2ccc(-c3ccccc3F)nc2)ccc1OC(F)(F)F [Example 161, 3-({[(2R)-2,4-dimethylpiperazin-1-yl]acetyl}amino)-N-[6-(2-fluorophenyl)pyridin-3-yl]-4-(trifluoromethoxy)benzamide] | 0.325 | 10
C[C@H]1CN(C)CCN1CC(=O)Nc1cc(C(=O)Nc2ccc(-c3ccccc3F)nc2)ccc1OC(F)(F)F [Example 162, 3-({[(2S)-2,4-dimethylpiperazin-1-yl]acetyl}amino)-N-[6-(2-fluorophenyl)pyridin-3-yl]-4-(trifluoromethoxy)benzamide] | 0.0855 | ≥ 50
C[C@H]1CN(CC(=O)Nc2cc(C(=O)Nc3ccc(-c4ccccc4F)nc3)ccc2OC(F)(F)F)CCN1C [Example 163, 3-({[(3S)-3,4-dimethylpiperazin-1-yl]acetyl}amino)-N-[6-(2-fluorophenyl)pyridin-3-yl]-4-(trifluoromethoxy)benzamide] | 0.057 | ≥ 50
C[C@@H]1CN(CC(=O)Nc2cc(C(=O)Nc3ccc(-c4ccccc4F)nc3)ccc2OC(F)(F)F)CCN1C [Example 164, 3-({[(3R)-3,4-dimethylpiperazin-1-yl]acetyl}amino)-N-[6-(2-fluorophenyl)pyridin-3-yl]-4-(trifluoromethoxy)benzamide] | 0.22 | ≥ 50
CC1CN(C)CCN1CC(=O)Nc1cc(C(=O)Nc2ccc(-c3ccccc3F)nc2)ccc1OC(F)(F)F (stereo not drawn) [Example 165, 3-{[(2,4-dimethylpiperazin-1-yl)acetyl]amino}-N-[6-(2-fluorophenyl)pyridin-3-yl]-4-(trifluoromethoxy)benzamide] | 0.051 | 7.2
CN1C2CCC1CN(CC(=O)Nc1cc(C(=O)Nc3ccc(-c4ccccc4F)nc3)ccc1OC(F)(F)F)C2 [Example 166, N-[6-(2-fluorophenyl)pyridin-3-yl]-3-{[(8-methyl-3,8-diazabicyclo[3.2.1]oct-3-yl)acetyl]amino}-4-(trifluoromethoxy)benzamide] | 0.148 | 3.9
CC1CN(C)CCN1CC(=O)Nc1cc(C(=O)Nc2nnc(-c3ccccc3)s2)ccc1OC(F)(F)F (stereo not drawn) [Example 167, 3-{[(2,4-dimethylpiperazin-1-yl)acetyl]amino}-N-(5-phenyl-1,3,4-thiadiazol-2-yl)-4-(trifluoromethoxy)benzamide] | 0.685 | ≥ 50
